Measured values as given in patent US20240366594A1, “Small Molecule Inhibitors of Formation of Neutrophil-Derived Extracellular Traps (NETosis) and Uses Thereof” (The Brigham and Women's Hospital, Inc., priority 2021, published 2024).

System: poly(I:C)-treated mice
Assay: Poly(I:C) pulmonary NET induction, mouse model of RNA viral lung infection
Assay type: in vivo
Details: for NET induction (CitH3 and MPO-DNA complexes in BALF and lung tissue): ELISA, FIGS. 2E-2H; for neutrophils in the BALF and in the lung: compared with poly(I:C) only, FIGS. 6D-6F; for neutrophil levels in the blood: cytofluorimetry, FIGS. 6B and 6C; for morbidity, measured as temperature drop / lung permeability (albumin content in BALF) / lung functionality (airway hyperreactivity to methacholine): ricolinostat 30 mg/kg/dose or GSK484 25 mg/kg/dose i.p., vs poly(I:C) only; for morbidity, measured as temperature drop: FIG. 2B; for lung permeability (albumin content in BALF): FIG. 2C; for lung functionality (airway hyperreactivity to methacholine): FIG. 2D
Description: Mice were intratracheally treated with 2.5 mg/kg poly(I:C) or saline daily for 4 days and euthanized 18 h post the last poly(I:C) instillation. Ricolinostat (30 mg/kg/dose) or GSK484 (25/mg/kg/dose) was administered intraperitoneally at day 2, day 4, and 3 h before the endpoint. • (B) Body temperature measurements at the endpoint. • (C) Lung permeability was measured as albumin content level in the BALF (n=5). • (D) Measure of airway hyperreactivity (AHR) in the indicated groups in response to increasing concentration of methacholine. RI, responsiveness index. • (E-H) CitH3 and MPO-DNA levels were analyzed by ELISA in BALFs (E, F) and in lungs (G, H) of mice treated as indicated. The saline group represents mice that received saline instead of poly(I:C). NT group represents mice that were challenged with poly(I:C) without receiving any drug. Statistics were calculated using one-way ANOVA (B, C, E-H) and two-way ANOVA with Tukey's analysis (D) (*p<0.05; **p<0.01; ***p<0.001; ****p<0.0001. n.s., not significant). n=10 (B, D) and 15 (E-H) for each group except for the GSK484-treated group (n=5). Gray stars represent comparison of all experimental groups with the saline-treated control. Black stars represent comparison between drug-treated groups and mice treated with poly(I:C) alone. Violin plots represent median (dashed line) with quartiles (dotted line). See also FIGS. 6A-F.
Nuclei are stained with DAPI (blue), and anti-neutrophils antibody (red). Scale bar=100 μm. • B-F) Neutrophils numbers and percentage were calculated in blood (B, C), BALFs (D, E), and lung tissues (F) of mice challenged, or not, with poly(I:C). The saline group represents mice that received saline instead of poly (I:C). NT group represent mice that were challenged with poly (I:C) without receiving any drug. Ricolinostat (30 mg/kg/dose) or GSK484 (25 mg/kg/dose) were administered intraperitoneally at day 2, day 4 and 3 h prior the endpoint. Violin plots represent median (dashed line) with quartiles (dotted line). Statistics were calculated using One-way ANOVA (*P<0.05; **P<0.01; ***P<0.001; ****P<0.0001; n.s., not significant). Grey stars represent comparison of all experimental groups with the saline control. Black stars represent comparison of drug treated groups with NT group.
NETosis was measured in bronco-alveolar lavage fluid or lung tissue homogenates as quantity of citrullinated histone H3 with Citrullinated histone H3 ELISA kit (Cayman) and as quantity of myeloperoxidase (MPO)-DNA complexes by using a modified Cell Death Detection ELISA (Roche). Briefly, anti-myeloperoxidase antibody (ThermoFisher) was used to coat a high-binding 96 multi-well plate overnight at 4° C. Following a 1 h blocking with 2% BSA/PBS solution, samples were added for an overnight incubation at 4° C. Finally, DNA was detected with Cell Death Detection kit according to manufacture instruction. Absorbance was measured at 405 nm and MPO-DNA complex levels were quantified as normalized relative to saline.
6-8 weeks-old female mice were treated daily with 2.5 mg/kg of poly (I:C) for 4 days and euthanized 18 hours post the last poly(I:C) intra-tracheal instillation, as previously described (Broggi et al., 2020). Temperatures were monitored with a rectal probe. NETosis was measured in bronco-alveolar lavage fluid and lung homogenates as quantity of citrullinated histone H3 and quantity of MPO-DNA complexes. Ricolinostat (30 mg/kg/dose) and GSK484 (25 mg/kg/dose) were administered intraperitoneally at day 2, day 4 and 3 hours prior the end point.

| Structure (SMILES) | NET induction (CitH3 and MPO-DNA complexes in BALF and lung tissue) | neutrophils in the BALF and in the lung | neutrophil levels in the blood | activity compared with GSK484 in all the conditions tested (outcompeted i.e. increased survival of neutrophils in the BALF) | morbidity, measured as temperature drop | lung permeability (albumin content in BALF) | lung functionality (airway hyperreactivity to methacholine) |
| --- | --- | --- | --- | --- | --- | --- | --- |
| O=C(CCCCCCNC(=O)c1cnc(N(c2ccccc2)c2ccccc2)nc1)NO [ricolinostat] | abrogated | trend of accumulation | did not change significantly | phenocopied, and in some cases outcompeted | significantly reduced | significantly preserved | significantly preserved |
| COc1cc(C(=O)N2CC[C@@H](O)[C@@H](N)C2)cc2nc(-c3cc4ccccc4n3CC3CC3)n(C)c12 [GSK484] | abrogated | trend of accumulation | did not change significantly |  | significantly reduced | significantly preserved | significantly preserved |
